Test results: patent US11415579B2, “Assay for measuring a rate of reaction between a target and a ligand candidate” (Imperial College Innovations Ltd., priority 2016, dated 2022)

Key:
Cdk2(S276C) (C177A) = biological target: T1, Cdk2(S276C) (C177A) (Homo sapiens, UniProt P24941, C177A/S276C); experiment: Kinetic thiol consumption assay with Cdk2 mutant S276C; type: binding; set-up: key to Rate enhancement, Cdk2 S276C: rate constant with Cdk2 ÷ rate constant with model thiol (fold); conditions: additional mutation C177A; for Rate constant with Cdk2 S276C: Protein: Cdk2, cysteine position S276C, in h^-1
T1 construct: poly-histidine; made in house; host or cells: E. coli
How it was run: (§1)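 5 μM thiol, degassed phosphate pH 8, 2% v/v immobilized TCEP beads; 1 h RT; fluorescence ex 380/em 470 nm; normalized vs DMSO/thiol-only; first-order exponential decay fit → rate constant; Cdk2 k / model-thiol k = rate enhancement per acrylamide.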

Cdk2(S181C) (C177A) = biological target: T2, Cdk2(S181C) (C177A) (Homo sapiens, UniProt P24941, C177A/S181C); experiment: Kinetic thiol consumption assay with Cdk2 mutant S181C; type: binding; set-up: key to Rate enhancement, Cdk2 S181C: rate constant with Cdk2 ÷ rate constant with model thiol (fold); conditions: additional mutation C177A; for Rate constant with Cdk2 S181C: Protein: Cdk2, cysteine position S181C, in h^-1
T2 construct: poly-histidine; made in house; host or cells: E. coli
How it was run: as §1

[1] = Kinetic thiol consumption assay with model thiol glutathione; type: physicochemical; set-up: Rate constant with glutathione (k(GSH)): unit not given here; conditions: for Rate constant with glutathione (k(GSH)): 500 μM ligand, 5 μM thiol, phosphate buffer pH 8; for Rate constant with Glutathione: Protein: Glutathione, cysteine position NA, in h-1
How it was run: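 GSH 5 μM, degassed phosphate buffer pH 8, TCEP beads 2% v/v; acrylamide added; RT, 1 h; fluorescence ex/em 380/470 nm; normalized to DMSO/thiol control; k from first-order exponential decay fit.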

Cdk2(C177A, F80C) = biological target: T3, Cdk2(C177A, F80C) (Homo sapiens, UniProt P24941, C177A/F80C); experiment: Kinetic thiol consumption assay with Cdk2 mutant F80C, incl. kobs versus concentration (Kd, k2); type: binding; set-up: key to Rate enhancement, Cdk2 F80C: Cdk2 rate constant divided by model-thiol rate constant; conditions: additional mutation C177A; for Rate constant with Cdk2 F80C: Protein: Cdk2, cysteine position F80C, in h^-1
T3 construct: poly-histidine; made in house; host or cells: E. coli
How it was run: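 His-tagged Cdk2(C177A/F80C) from E. coli or model thiol, 5 μM in degassed phosphate buffer pH 8 with TCEP beads, reacted with acrylamide ligands; fluorescence (ex/em 380/470 nm) normalized to DMSO control and fitted to first-order decay for kobs. Kd and k2 obtained from hyperbolic fit of kobs versus ligand concentration.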

[2] = biological target: T4, human cyclin-dependent kinase 2 (Cdk2) (Homo sapiens, UniProt P24941); experiment: Kinetic thiol consumption assay with wild type Cdk2 (C177); type: binding; set-up: key to Rate enhancement, Cdk2 WT: k(Cdk2) divided by k(model thiol); Rate constant with Cdk2 (k(Cdk2)): unit not given here; conditions: for Rate constant with Cdk2 (k(Cdk2)): 500 μM ligand, 5 μM thiol, phosphate buffer pH 8; for Rate enhancement, Cdk2 WT: no additional mutations; for Rate constant with Cdk2 WT: Protein: Cdk2, cysteine position WT, in h^-1; for k(Cdk2)/k(Cdk2_mut) rate enhancement: model thiol Cdk2[C177A, F80C, K278C]; for k(Cdk2)/k(GSH) rate enhancement: model thiol glutathione
T4 construct: poly-histidine; made in house; host or cells: E. coli
How it was run: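 Rate enhancement: first-order decay constant with Cdk2 over that with a model thiol. Thiols (5 μM, degassed phosphate buffer pH 8, immobilized TCEP) were incubated with acrylamides at room temperature, and thiol consumption followed by fluorescence at 380/470 nm, normalized to DMSO control. Cdk2 was His-tagged, E. coli-expressed, with one surface cysteine (C177).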

Cdk2(T182C) (C177A) = biological target: T5, Cdk2(T182C) (C177A) (Homo sapiens, UniProt P24941, C177A/T182C); experiment: Kinetic thiol consumption assay with Cdk2 mutant T182C; type: binding; set-up: key to Rate enhancement, Cdk2 T182C: rate constant with Cdk2 ÷ rate constant with model thiol (fold); conditions: additional mutation C177A; for Rate constant with Cdk2 T182C: Protein: Cdk2, cysteine position T182C, in h^-1
T5 construct: poly-histidine; made in house; host or cells: E. coli
How it was run: as §1

Cdk2(H71C) (C177A) = biological target: T6, Cdk2(H71C) (C177A) (Homo sapiens, UniProt P24941, C177A/H71C); experiment: Kinetic thiol consumption assay with Cdk2 mutant H71C; type: binding; set-up: key to Rate enhancement, Cdk2 H71C: rate constant with Cdk2 ÷ rate constant with model thiol (fold); conditions: additional mutation C177A; for Rate constant with Cdk2 H71C: Protein: Cdk2, cysteine position H71C, in h^-1
T6 construct: poly-histidine; made in house; host or cells: E. coli
How it was run: as §1

Cdk2[C177A, F80C, K278C] = biological target: T7, Cdk2[C177A, F80C, K278C] (Homo sapiens, UniProt P24941, C177A/F80C/K278C); experiment: Kinetic thiol consumption assay with mutant Cdk2 as model thiol; type: binding; set-up: unit not given here; conditions: 500 μM ligand, 5 μM thiol, phosphate buffer pH 8
T7 construct: poly-histidine; made in house; host or cells: E. coli
How it was run: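 Model thiol: His-tagged human Cdk2 C177A/F80C/K278C (two engineered surface cysteines), E. coli-expressed, 5 μM in degassed phosphate buffer pH 8 with immobilized TCEP beads (2% v/v). Fluorescence (ex/em 380/470 nm) followed over time at room temperature, normalized to DMSO/thiol control. First-order decay fit gives rate constants.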

Cdk2(N272C) (C177A) = biological target: T8, Cdk2(N272C) (C177A) (Homo sapiens, UniProt P24941, C177A/N272C); experiment: Kinetic thiol consumption assay with Cdk2 mutant N272C; type: binding; set-up: key to Rate enhancement, Cdk2 N272: rate constant with Cdk2 ÷ rate constant with model thiol (fold); conditions: for Rate enhancement, Cdk2 N272: Cdk2 N272, additional mutation C177A; for Rate constant with Cdk2 N272C: Protein: Cdk2, cysteine position N272C, additional mutation C177A, in h^-1
T8 construct: poly-histidine; made in house; host or cells: E. coli
How it was run: as §1

Cdk2(R122C) (C177A) = biological target: T9, Cdk2(R122C) (C177A) (Homo sapiens, UniProt P24941, C177A/R122C); experiment: Kinetic thiol consumption assay with Cdk2 mutant R122C; type: binding; set-up: key to Rate enhancement, Cdk2 R122C: rate constant with Cdk2 ÷ rate constant with model thiol (fold); conditions: additional mutation C177A; for Rate constant with Cdk2 R122C: Protein: Cdk2, cysteine position R122C, in h-1
T9 construct: poly-histidine; made in house; host or cells: E. coli
How it was run: as §1

Compound | Rate enhancement, Cdk2 S276C (Cdk2(S276C) (C177A)) | Rate constant with Cdk2 S276C (Cdk2(S276C) (C177A)) | Rate enhancement, Cdk2 S181C (Cdk2(S181C) (C177A)) | Rate constant with Cdk2 S181C (Cdk2(S181C) (C177A)) | Rate enhancement, Cdk2 F80C (Cdk2(C177A, F80C)) | Rate constant with Cdk2 F80C (Cdk2(C177A, F80C)) | Rate constant with Cdk2 (k(Cdk2)) [2] | Rate enhancement, Cdk2 WT [2] | Rate constant with Cdk2 WT [2] | k(Cdk2)/k(Cdk2_mut) rate enhancement [2] | k(Cdk2)/k(GSH) rate enhancement [2] | Rate enhancement, Cdk2 T182C (Cdk2(T182C) (C177A)) | Rate constant with Cdk2 T182C (Cdk2(T182C) (C177A)) | Rate enhancement, Cdk2 H71C (Cdk2(H71C) (C177A)) | Rate constant with Cdk2[C177A, F80C, K278C] (k(Cdk2_mut)) (Cdk2[C177A, F80C, K278C]) | Rate enhancement, Cdk2 N272 (Cdk2(N272C) (C177A)) | Rate constant with Cdk2 N272C (Cdk2(N272C) (C177A)) | Rate enhancement, Cdk2 R122C (Cdk2(R122C) (C177A)) | Rate constant with glutathione (k(GSH)) [1] | Rate constant with Glutathione [1] | further results
C=CC(=O)N(Cc1ccc2c(c1)CCO2)C1CCCC1 [CA-184] | 20.94 | 0.6153 | 10.57 | 0.3106 | 2.208 | 0.06488 | 0.2235 | 7.607 | 0.2235 | 3.034 | 12.04 | 11.73 | 0.3446 | 7.662 | 0.07366 | 7.192 | 0.2113 | 0.7583 | 0.01856 | 0.02938 | hit classification, Example 1 ([2]; hits defined as kCdk2/kGSH>5.8 (3 standard deviations over the mean)): hit fragments; Rate constant with Cdk2 H71C (Cdk2(H71C) (C177A)): 0.2251; Rate constant with Cdk2 R122C (Cdk2(R122C) (C177A)): 0.02228
C=CC(=O)Nc1nc2c(s1)CCCCCC2 [CA-170] | 0.7229 | 0.05196 | 0.4978 | 0.03578 | 13.67 | 0.9829 | 0.2972 | 4.135 | 0.2972 | 0.3231 | 4.273 | 5.267 | 0.3786 | 0.9221 | 0.9197 | 0.4672 | 0.03358 | 0.3489 | 0.06955 | 0.07188 | Rate constant with Cdk2 H71C (Cdk2(H71C) (C177A)): 0.06628; Rate constant with Cdk2 R122C (Cdk2(R122C) (C177A)): 0.02508
C=CC(=O)N1CCC(NC(=O)C2CCC2)C1 (stereo not drawn) [CA-088] | 0.4395 | 0.008557 | 0.1904 | 0.003708 | 0.1205 | 0.002347 | 0.00595 | 0.3054 | 0.005947 | 3.366 | 0.4399 | 0.9096 | 0.01771 | 0 | 0.00177 | 0.5609 | 0.01092 | 0.4684 | 0.01352 | 0.01947 | Rate constant with Cdk2 R122C (Cdk2(R122C) (C177A)): 0.009119
C=CC(=O)N1CC(OCc2cccc3ccccc23)C1 [CA-203] | 3.934 | 0.05406 | 8.879 | 0.122 | 4.306 | 0.05916 | 0.04586 | 3.338 | 0.04586 | 0.5803 | 3.318 | 13.92 | 0.1913 | 3.672 | 0.07903 | 2.758 | 0.0379 | 3.287 | 0.01382 | 0.01374 | Rate constant with Cdk2 H71C (Cdk2(H71C) (C177A)): 0.05046; Rate constant with Cdk2 R122C (Cdk2(R122C) (C177A)): 0.04516

Second part, led by results:

Rate enhancement, Cdk2 S276C (Cdk2(S276C) (C177A)) | Rate constant with Cdk2 S276C (Cdk2(S276C) (C177A)) | Rate enhancement, Cdk2 S181C (Cdk2(S181C) (C177A)) | Rate constant with Cdk2 S181C (Cdk2(S181C) (C177A)) | Rate enhancement, Cdk2 F80C (Cdk2(C177A, F80C)) | Rate constant with Cdk2 F80C (Cdk2(C177A, F80C)) | Rate constant with Cdk2 (k(Cdk2)) [2] | Rate enhancement, Cdk2 WT [2] | Rate constant with Cdk2 WT [2] | k(Cdk2)/k(Cdk2_mut) rate enhancement [2] | k(Cdk2)/k(GSH) rate enhancement [2] | Rate enhancement, Cdk2 T182C (Cdk2(T182C) (C177A)) | Rate constant with Cdk2 T182C (Cdk2(T182C) (C177A)) | Rate enhancement, Cdk2 H71C (Cdk2(H71C) (C177A)) | Rate constant with Cdk2[C177A, F80C, K278C] (k(Cdk2_mut)) (Cdk2[C177A, F80C, K278C]) | Rate enhancement, Cdk2 N272 (Cdk2(N272C) (C177A)) | Rate constant with Cdk2 N272C (Cdk2(N272C) (C177A)) | Rate enhancement, Cdk2 R122C (Cdk2(R122C) (C177A)) | Compound | Rate constant with glutathione (k(GSH)) [1] | Rate constant with Glutathione [1] | further results
0.4007 | 0.005321 | 0.2887 | 0.003834 | 0.4424 | 0.005875 | 0.00596 | 0.6935 | 0.00921 | 1.774 | 0.9394 | 4.397 | 0.05839 | 0.4465 | 0.00336 | 0.5301 | 0.00704 | 0.1436 | C=CC(=O)N1CCCC(C(=O)OCC)C1 (stereo not drawn) [EL-1187] | 0.00634 | 0.01328 | Rate constant with Cdk2 H71C (Cdk2(H71C) (C177A)): 0.005929; Rate constant with Cdk2 R122C (Cdk2(R122C) (C177A)): 0.001907
0.1863 | 0.002781 | 1.037 | 0.01548 | 0.1205 | 0.001799 | 0.01014 | 0.9116 | 0.01361 | 0.65 | 0.6783 | 34.92 | 0.5214 | 0.6345 | 0.0156 | 1.058 | 0.01579 | 0.8326 | C=CC(=O)Nc1cccc(Nc2ncnc3cc(OC)c(OC)cc23)c1 [GC248] | 0.01495 | 0.01493 | Rate constant with Cdk2 H71C (Cdk2(H71C) (C177A)): 0.009473; Rate constant with Cdk2 R122C (Cdk2(R122C) (C177A)): 0.01243
